{
  "source": "patent US20050002862A1",
  "about": "“Biological markers for evaluating therapeutic treatment of inflammatory and autoimmune disorders” (priority 2000, published 2005)",
  "assay_type_in_all_cases": "in vivo, human",
  "key": {"[1]": {"test_system": "CD89 expression on granulocytes", "assay": "CD89 expression on granulocytes in blood, microvolume laser scanning cytometry, before/after oral prednisone", "conditions": "after three days of oral prednisone, adjusted p-value < 0.001", "from_the_text": "(§1) The inventive biomarkers were identified in a study of the effects of oral prednisone on biological markers of allergy and asthma. Eighty subjects were enrolled in the study, 23 with atopic asthma, 28 with allergy alone, 26 with neither allergy nor asthma (healthy controls), and 3 with asthma alone. Allergy was defined by a positive skin prick test. Mild asthma was defined as positive methacholine challenge within the last three months, as well as one or more of documented diagnosis of asthma, history of cough, recurrent wheeze, recurrent difficult breathing, and recurrent chest tightening. […] Cellular markers in the blood samples were evaluated using the SurroScan™ microvolume laser scanning cytometry system for multiparameter cellular analysis. […] In addition, the relative levels of 49 different cell surface antigens (activation antigens, co-stimulatory molecules, adhesion molecules, antigen receptors, cytokine receptors) on specific cell populations were measured. […] Each fluorophore was measured in a separate detection channel, and images were converted to flow cytometry standard format and analyzed with FlowJo™ cytometry analysis software. […] Following data acquisition, variables were analyzed to assess differences in subject groups before drug administration, as well as changes following drug administration. […]"}, "[2]": {"test_system": "CD38 expression on CD4 T cells", "assay": "CD38 expression on CD4 T cells in blood, cytometry, before/after oral prednisone", "conditions": "after three days of oral prednisone; all disease groups; mean pre drug 32.9 (9.8); adjusted p-value < 0.001", "from_the_text": "as §1"}, "[3]": {"test_system": "HLA class II expression on B cells", "assay": "HLA class II expression on B cells in blood, cytometry, before/after oral prednisone", "conditions": "after three days of oral prednisone, all disease groups, adjusted p-value < 0.001", "from_the_text": "The inventive biomarkers were identified in a study of the effects of oral prednisone on biological markers of allergy and asthma. Eighty subjects were enrolled in the study, 23 with atopic asthma, 28 with allergy alone, 26 with neither allergy nor asthma (healthy controls), and 3 with asthma alone. Allergy was defined by a positive skin prick test. Mild asthma was defined as positive methacholine challenge within the last three months, as well as one or more of documented diagnosis of asthma, history of cough, recurrent wheeze, recurrent difficult breathing, and recurrent chest tightening. Approximately half of the subjects from each disease group were given oral prednisone for three days, while the other half was given a placebo. Blood samples were taken before treatment and after three days of treatment with oral prednisone or placebo. Cellular markers in the blood samples were evaluated using the SurroScan™ microvolume laser scanning cytometry system for multiparameter cellular analysis. Monoclonal antigen-specific antibodies were purchased from commercial vendors and coupled to one of three different fluorophores, Cy5, Cy5.5, and Cy7-APC. Assays were performed to monitor cell counts of more than 200 different cell populations, including granulocytes, eosinophils, monocytes, CD4 and CD8 T cells, B cells, and NK cells. In addition, the relative levels of 49 different cell surface antigens (activation antigens, co-stimulatory molecules, adhesion molecules, antigen receptors, cytokine receptors) on specific cell populations were measured. […] Each fluorophore was measured in a separate detection channel, and images were converted to flow cytometry standard format and analyzed with FlowJo™ cytometry analysis software. […] Following data acquisition, variables were analyzed to assess differences in subject groups before drug administration, as well as changes following drug administration. A total of 713 variables, including cell populations, cell surface antigen expression, and soluble factors, were analyzed. […]"}, "[4]": {"test_system": "CD62L expression on B cells", "assay": "CD62L expression on B cells in blood, cytometry, before/after oral prednisone", "conditions": "after three days of oral prednisone; all disease groups; mean pre drug 2998 (505); adjusted p-value < 0.001", "from_the_text": "as §1"}, "monocytes": {"test_system": "monocytes", "assay": "Monocyte count in blood, cytometry, before/after oral prednisone", "conditions": "after three days of oral prednisone; all disease groups; mean pre drug 369 (121); adjusted p-value < 0.001", "from_the_text": "as §1"}, "[5]": {"test_system": "HLA class II expression on monocytes", "assay": "HLA class II expression on monocytes in blood, cytometry, before/after oral prednisone", "conditions": "after three days of oral prednisone, all disease groups, adjusted p-value < 0.001", "from_the_text": "The inventive biomarkers were identified in a study of the effects of oral prednisone on biological markers of allergy and asthma. Eighty subjects were enrolled in the study, 23 with atopic asthma, 28 with allergy alone, 26 with neither allergy nor asthma (healthy controls), and 3 with asthma alone. Allergy was defined by a positive skin prick test. Mild asthma was defined as positive methacholine challenge within the last three months, as well as one or more of documented diagnosis of asthma, history of cough, recurrent wheeze, recurrent difficult breathing, and recurrent chest tightening. Approximately half of the subjects from each disease group were given oral prednisone for three days, while the other half was given a placebo. Blood samples were taken before treatment and after three days of treatment with oral prednisone or placebo. Cellular markers in the blood samples were evaluated using the SurroScan™ microvolume laser scanning cytometry system for multiparameter cellular analysis. Monoclonal antigen-specific antibodies were purchased from commercial vendors and coupled to one of three different fluorophores, Cy5, Cy5.5, and Cy7-APC. Assays were performed to monitor cell counts of more than 200 different cell populations, including granulocytes, eosinophils, monocytes, CD4 and CD8 T cells, B cells, and NK cells. In addition, the relative levels of 49 different cell surface antigens (activation antigens, co-stimulatory molecules, adhesion molecules, antigen receptors, cytokine receptors) on specific cell populations were measured. The prepared antibody-dye reagents were combined into cocktails and incubated with aliquots of whole or red blood cell-lysed blood in the dark at room temperature for 20 minutes. The samples were then diluted with an appropriate buffer and loaded into capillary arrays for analysis. Each fluorophore was measured in a separate detection channel, and images were converted to flow cytometry standard format and analyzed with FlowJo™ cytometry analysis software. Template gates were used to enumerate the cell populations of interest in all of the assays. Following data acquisition, variables were analyzed to assess differences in subject groups before drug administration, as well as changes following drug administration. A total of 713 variables, including cell populations, cell surface antigen expression, and soluble factors, were analyzed. […] Univariate tests were performed on individual variables, and the step-down Bonferroni p-value adjustment method of Holm was employed to control for multiple comparisons. The Bonferroni correction, which reduces the number of false positives, is described above. Univariate tests were performed on the data before and after drug administration for both the drug and placebo groups. In order to determine whether any non-normality of the data affected the tests, both non-parametric tests (sign rank or sign) and parametric paired t-tests were performed. Statistical tests for normality, skewness, and kurtosis were performed per variable to assess normality. For sufficiently normally distributed data, the paired t-test result was used; otherwise, the nonparametric result was used. All p-values were adjusted using the step-down Bonferroni method, maintaining the overall study false positive rate below 5%. […] When the analysis was performed on the separate disease classes individually, no significant differences were found before and after drug administration. Additionally, a linear-mixed model was used to evaluate fixed and random effects for the prednisone and placebo groups. This model notes the difference in response in the drug and placebo to indicate whether the observed trends can be attributed to the drug alone. The model, executed with PROC MIXED in SAS™, used the three fixed effects of drug, time, and (drug×time) to fit the data."}, "MMP-3": {"test_system": "MMP-3", "assay": "MMP-3 concentration, sandwich ELISA, before/after oral prednisone", "conditions": "after three days of oral prednisone; all disease groups; mean pre drug 37 (29); adjusted p-value < 0.001", "from_the_text": "(§2) The inventive biomarkers were identified in a study of the effects of oral prednisone on biological markers of allergy and asthma. Eighty subjects were enrolled in the study, 23 with atopic asthma, 28 with allergy alone, 26 with neither allergy nor asthma (healthy controls), and 3 with asthma alone. Allergy was defined by a positive skin prick test. Mild asthma was defined as positive methacholine challenge within the last three months, as well as one or more of documented diagnosis of asthma, history of cough, recurrent wheeze, recurrent difficult breathing, and recurrent chest tightening. Approximately half of the subjects from each disease group were given oral prednisone for three days, while the other half was given a placebo. Blood samples were taken before treatment and after three days of treatment with oral prednisone or placebo. […] Finally, the chemiluminescent alkaline phosphatase substrate was added and incubated before reading. Standard curves and analyte amounts were determined using curve fitting techniques. Following data acquisition, variables were analyzed to assess differences in subject groups before drug administration, as well as changes following drug administration. A total of 713 variables, including cell populations, cell surface antigen expression, and soluble factors, were analyzed. […]"}, "SAA": {"test_system": "SAA", "assay": "SAA concentration, sandwich ELISA, before/after oral prednisone", "conditions": "after three days of oral prednisone; all disease groups; mean pre drug 2.73 (3.3); adjusted p-value < 0.001", "from_the_text": "as §2"}},
  "data": [
    {"smiles": "C[C@]12C=CC(=O)C=C1CC[C@@H]1[C@@H]2C(=O)C[C@@]2(C)[C@H]1CC[C@]2(O)C(=O)CO", "note": "[prednisone]", "values": [
      {"measurement": "CD89+ granulocyte population, Mean Post Drug (SD)", "setting": "[1]; all disease groups (atopic, atopic asthmatic, healthy), mean pre drug 85 (20)", "value": "96 (9) % of total granulocytes"},
      {"measurement": "CD89 on granulocytes (expression intensity), Mean Post Drug (SD)", "setting": "[1]; all disease groups, mean pre drug 2047 (1549)", "value": "2527 (1691) arbitrary units"},
      {"measurement": "CD38+ CD4 T cells, Mean Post Drug (SD)", "setting": "[2]", "value": "29.3 (9.1) % of all CD4 T cells"},
      {"measurement": "HLA-DQ on B cells (expression intensity), Mean Post Drug (SD)", "setting": "[3]; mean pre drug 3123 (1090)", "value": "1680 (817) arbitrary units"},
      {"measurement": "HLA-DR on B cells (expression intensity), Mean Post Drug (SD)", "setting": "[3]; mean pre drug 8108 (2711)", "value": "4486 (2025) arbitrary units"},
      {"measurement": "HLA-PAN on B cells (expression intensity), Mean Post Drug (SD)", "setting": "[3]; mean pre drug 11684 (3190)", "value": "6550 (3123) arbitrary units"},
      {"measurement": "CD62L on B cells (expression intensity), Mean Post Drug (SD)", "setting": "[4]", "value": "2479 (478) arbitrary units"},
      {"measurement": "Monocytes (count), Mean Post Drug (SD)", "setting": "monocytes", "value": "478 (160) cells/μl"},
      {"measurement": "HLADQ+ monocyte population, Mean Post Drug (SD)", "setting": "[5]; mean pre drug 8.7 (4.39)", "value": "3.6 (2.49) % of total monocytes"},
      {"measurement": "HLADR+ monocyte population, Mean Post Drug (SD)", "setting": "[5]; mean pre drug 84.4 (14.0)", "value": "75.4 (16.9) % of total monocytes"},
      {"measurement": "HLAPAN+ monocyte population, Mean Post Drug (SD)", "setting": "[5]; mean pre drug 91.8 (8.4)", "value": "83.0 (15.1) % of total monocytes"},
      {"measurement": "HLA-DQ on monocytes (expression intensity), Mean Post Drug (SD)", "setting": "[5]; mean pre drug 165 (103)", "value": "69 (52) arbitrary units"},
      {"measurement": "HLA-DR on monocytes (expression intensity), Mean Post Drug (SD)", "setting": "[5]; mean pre drug 2966 (1068)", "value": "1970 (729) arbitrary units"},
      {"measurement": "HLA-PAN on monocytes (expression intensity), Mean Post Drug (SD)", "setting": "[5]; mean pre drug 4961 (1738)", "value": "3196 (1046) arbitrary units"},
      {"measurement": "MMP-3 concentration, Mean Post Drug (SD)", "setting": "MMP-3", "value": "188 (140) ng/ml"},
      {"measurement": "SAA concentration, Mean Post Drug (SD)", "setting": "SAA", "value": "6.71 (14.5) μg/ml"}
    ]}
  ]
}
